# Legend:
# [1] = test system: Mycobacterium avium; conditions: isolate MAV2
# Description: Inhibition of multidrug resistance efflux pump in Mycobacterium avium isolate MAV2 assessed as potentiation of ofloxacin-induced antibacterial activity by measuring ofloxacin MIC at 1/4 MIC incubated for 3 days by MTT assay
# [2] = test system: Mycobacterium avium; conditions: isolate MAV1
# [3] = test system: Mycobacterium avium; conditions: isolate MAV4
# [4] = test system: Mycobacterium avium; conditions: isolate MAV4; remark: listed apart in the source
# [5] = test system: Mycobacterium avium; conditions: isolate MAV2; remark: listed apart in the source
# Description: Inhibition of multidrug resistance efflux pump in Mycobacterium avium isolate MAV2 assessed as potentiation of ofloxacin-induced antibacterial activity by measuring ofloxacin MIC at 1/2 MIC incubated for 3 days by MTT assay
# [6] = test system: Mycobacterium avium; conditions: 104
# [7] = test system: Mycobacterium avium; conditions: 104 mc'2 3
# [8] = test system: Mycobacterium avium subsp. avium ATCC 25291
# Description: Inhibition of multidrug resistance efflux pump in Mycobacterium avium ATCC 25291 assessed as potentiation of ethidium bromide-induced antibacterial activity by measuring ethidium bromide MIC at 1/4 MIC incubated for 3 days by MTT assay
# [9] = test system: Mycobacterium avium subsp. avium ATCC 25291; remark: listed apart in the source
# [10] = test system: Mycobacterium avium; conditions: isolate MAV3
# [11] = test system: Mycobacterium avium; conditions: 104 mc'2 4
# [12] = test system: Mycobacterium avium subsp. avium ATCC 25291; remark: listed apart in the source
# [13] = test system: Mycobacterium avium; conditions: 104 mc'2 3; remark: listed apart in the source
# [14] = test system: Mycobacterium avium; conditions: 104 mc'2 4; remark: listed apart in the source
# [15] = test system: Mycobacterium avium; conditions: in vivo, 72 h
# Description: Antimycobacterial activity against Mycobacterium avium 104 mc'2 4 assessed as reduction in bacterial viability incubated for 3 days by MTT assay
# [16] = test system: Mycobacterium avium; experiment: Antimycobacterial activity against Mycobacterium avium isolate MAV3 assessed as reduction in bacterial viability incubated for 3 days by MTT assay; format: organism-based; conditions: 72 h
# [17] = test system: Mycobacterium avium; conditions: isolate MAV4; remark: listed apart in the source
# Description: Inhibition of multidrug resistance efflux pump in Mycobacterium avium isolate MAV4 assessed as potentiation of ethidium bromide-induced antibacterial activity by measuring ethidium bromide MIC at 1/4 MIC incubated for 3 days by MTT assay
# [18] = test system: Mycobacterium avium; conditions: 104; remark: listed apart in the source
# Description: Inhibition of multidrug resistance efflux pump in Mycobacterium avium 104 assessed as potentiation of clarithromycin -induced antibacterial activity by measuring clarithromycin MIC at 1/4 MIC incubated for 3 days by MTT assay
# [19] = test system: Mycobacterium avium; experiment: Antimycobacterial activity against Mycobacterium avium isolate MAV4 assessed as reduction in bacterial viability incubated for 3 days by MTT assay; format: organism-based; conditions: 72 h
# [20] = test system: Mycobacterium avium; conditions: in vivo, 72 h; remark: listed apart in the source
# Description: Antimycobacterial activity against Mycobacterium avium 104 mc'2 3 assessed as reduction in bacterial viability incubated for 3 days by MTT assay
# [21] = test system: Mycobacterium avium; conditions: isolate MAV4; remark: listed apart in the source
# [22] = test system: Mycobacterium avium; conditions: isolate MAV2; remark: listed apart in the source
# [23] = test system: Mycobacterium avium; conditions: 104; remark: listed apart in the source
# [24] = test system: Mycobacterium avium; conditions: 104 mc'2 4; remark: listed apart in the source
# [25] = test system: Mycobacterium avium; conditions: isolate MAV1; remark: listed apart in the source
# [26] = test system: Mycobacterium avium; conditions: isolate MAV1; remark: listed apart in the source
# Description: Inhibition of multidrug resistance efflux pump in Mycobacterium avium isolate MAV1 assessed as potentiation of ofloxacin-induced antibacterial activity by measuring ofloxacin MIC at 1/4 MIC incubated for 3 days by MTT assay (Rvb = 4 ug/ml)
# [27] = test system: Mycobacterium avium; conditions: isolate MAV4; remark: listed apart in the source
# [28] = test system: Mycobacterium avium; conditions: isolate MAV3; remark: listed apart in the source
# [29] = test system: Mycobacterium avium subsp. avium ATCC 25291; remark: listed apart in the source
# [30] = test system: Mycobacterium avium; conditions: isolate MAV2; remark: listed apart in the source
# [31] = test system: Mycobacterium avium; conditions: isolate MAV3; remark: listed apart in the source
# [32] = test system: Mycobacterium avium; conditions: 104; remark: listed apart in the source
# [33] = test system: Mycobacterium avium; conditions: isolate MAV4; remark: listed apart in the source
# [34] = test system: Mycobacterium avium; conditions: 104 mc'2 3; remark: listed apart in the source
# [35] = test system: Mycobacterium avium; conditions: isolate MAV3; remark: listed apart in the source
# [36] = test system: Mycobacterium avium; conditions: isolate MAV2; remark: listed apart in the source
# Description: Inhibition of multidrug resistance efflux pump in Mycobacterium avium isolate MAV2 assessed as potentiation of clarithromycin -induced antibacterial activity by measuring clarithromycin MIC at 1/4 MIC incubated for 3 days by MTT assay (Rvb = >1024 ug/ml)
# [37] = test system: Mycobacterium avium; conditions: 104 mc'2 3; remark: listed apart in the source
# [38] = test system: Mycobacterium avium; conditions: isolate MAV1; remark: listed apart in the source
# [39] = test system: Mycobacterium avium; conditions: isolate MAV1; remark: listed apart in the source
# [40] = test system: Mycobacterium avium; conditions: isolate MAV3; remark: listed apart in the source
# [41] = test system: Mycobacterium avium; conditions: isolate MAV1; remark: listed apart in the source
# Description: Inhibition of multidrug resistance efflux pump in Mycobacterium avium isolate MAV1 assessed as potentiation of ciprofloxacin-induced antibacterial activity by measuring ciprofloxacin MIC at 1/4 MIC incubated for 3 days by MTT assay
# [42] = test system: Mycobacterium avium; conditions: 104; remark: listed apart in the source
# [43] = test system: Mycobacterium avium; conditions: isolate MAV2; remark: listed apart in the source
# [44] = Cytotoxicity in human monocyte-derived macrophages assessed as reduction in cell viability incubated for 3 days by alamar blue dye based assay; set-up: species or system Macrophage cell line
# [45] = test system: Mycobacterium avium; conditions: isolate MAV2; remark: listed apart in the source
# [46] = test system: Mycobacterium avium; conditions: isolate MAV1; remark: listed apart in the source
# [47] = test system: Mycobacterium avium; conditions: 104; remark: listed apart in the source
# [48] = test system: Mycobacterium avium; conditions: 104 mc'2 4; remark: listed apart in the source
# [49] = test system: Mycobacterium avium; conditions: isolate MAV1; remark: listed apart in the source
# Description: Inhibition of multidrug resistance efflux pump in Mycobacterium avium isolate MAV1 assessed as potentiation of ciprofloxacin-induced antibacterial activity by measuring ciprofloxacin MIC at 1/2 MIC incubated for 3 days by MTT assay (Rvb = 2 ug/ml)
# [50] = test system: Mycobacterium avium; conditions: isolate MAV1; remark: listed apart in the source
# [51] = test system: Mycobacterium avium; conditions: 104; remark: listed apart in the source
# [52] = test system: Mycobacterium avium; conditions: isolate MAV1; remark: listed apart in the source
# Description: Inhibition of multidrug resistance efflux pump in Mycobacterium avium isolate MAV1 assessed as potentiation of ofloxacin-induced antibacterial activity by measuring ofloxacin MIC at 1/2 MIC incubated for 3 days by MTT assay (Rvb = 4 ug/ml)
# [53] = test system: Mycobacterium avium; conditions: isolate MAV3; remark: listed apart in the source
# [54] = test system: Mycobacterium avium; conditions: 104; remark: listed apart in the source
# [55] = test system: Mycobacterium avium subsp. avium ATCC 25291; remark: listed apart in the source
# [56] = test system: Mycobacterium avium; conditions: isolate MAV4; remark: listed apart in the source
# [57] = test system: Mycobacterium avium; conditions: isolate MAV1; remark: listed apart in the source
# [58] = test system: Mycobacterium avium; conditions: 104 mc'2 3; remark: listed apart in the source
# [59] = test system: Mycobacterium avium; conditions: isolate MAV4; remark: listed apart in the source
# [60] = test system: Mycobacterium avium subsp. avium ATCC 25291; remark: listed apart in the source
# [61] = test system: Mycobacterium avium; conditions: 104 mc'2 4; remark: listed apart in the source
# [62] = test system: Mycobacterium avium; conditions: 104 mc'2 4; remark: listed apart in the source
# [63] = test system: Mycobacterium avium; conditions: 104 mc'2 3; remark: listed apart in the source
# [64] = test system: Mycobacterium avium; conditions: 104; remark: listed apart in the source
# Description: Inhibition of multidrug resistance efflux pump in Mycobacterium avium 104 assessed as potentiation of clarithromycin -induced antibacterial activity by measuring clarithromycin MIC at 1/2 MIC incubated for 3 days by MTT assay
# [65] = test system: Mycobacterium avium subsp. avium ATCC 25291; remark: listed apart in the source
# Description: Inhibition of multidrug resistance efflux pump in Mycobacterium avium ATCC 25291 assessed as potentiation of ethidium bromide-induced antibacterial activity by measuring ethidium bromide MIC at 1/2 MIC incubated for 3 days by MTT assay (Rvb = 50 ug/ml)
smiles,measurement,setting,value
CSc1ccc2c(c1)N(CCC1CCCCN1C)c1ccccc1S2 (stereo unspecified) [THIORIDAZINE],MIC,[1],1 µg/mL
same,MIC,[2],< 0.031 µg/mL
same,MIC,[3],256 µg/mL
same,MIC,[4],16 µg/mL
same,MIC,[5],0.5 µg/mL
same,MIC,[6],4 µg/mL
same,MIC,[7],8 µg/mL
same,MIC,[8],25 µg/mL
same,MIC,[9],32 µg/mL
same,MIC,[10],128 µg/mL
same,MIC,[11],0.5 µg/mL
same,MIC,[12],8 µg/mL
same,MIC,[13],> 512 µg/mL
same,MIC,[14],4 µg/mL
same,MIC,[15],30 µg/mL
same,MIC,[16],30 µg/mL
same,MIC,[17],25 µg/mL
same,MIC,[18],4 µg/mL
same,MIC,[19],30 µg/mL
same,MIC,[20],30 µg/mL
same,MIC,[21],128 µg/mL
same,MIC,[22],> 512 µg/mL
same,MIC,[23],4 µg/mL
same,MIC,[24],8 µg/mL
same,MIC,[25],< 4 µg/mL
same,MIC,[26],1 µg/mL
same,MIC,[27],64 µg/mL
same,MIC,[28],2 µg/mL
same,MIC,[29],32 µg/mL
same,MIC,[30],12.5 µg/mL
same,MIC,[31],128 µg/mL
same,MIC,[32],4 µg/mL
same,MIC,[33],64 µg/mL
same,MIC,[34],< 4 µg/mL
same,MIC,[35],64 µg/mL
same,MIC,[36],> 512 µg/mL
same,MIC,[37],< 0.125 µg/mL
same,MIC,[38],16 µg/mL
same,MIC,[39],< 4 µg/mL
same,MIC,[40],12.5 µg/mL
same,MIC,[41],0.5 µg/mL
same,MIC,[42],32 µg/mL
same,MIC,[43],0.25 µg/mL
same,CC50 at 72 h,[44]; human monocyte-derived macrophages,13.8 µM
same,MTC,"[44]; macrophage cell line, 72 h",2.5 µM
same,MIC,[45],128 µg/mL
same,MIC,[46],0.78 µg/mL
same,MIC,[47],64 µg/mL
same,MIC,[48],12.5 µg/mL
same,MIC,[49],< 0.031 µg/mL
same,MIC,[50],< 0.195 µg/mL
same,MIC,[51],2 µg/mL
same,MIC,[52],< 0.0625 µg/mL
same,MIC,[53],64 µg/mL
same,MIC,[54],12.5 µg/mL
same,MIC,[55],4 µg/mL
same,MIC,[56],4 µg/mL
same,MIC,[57],0.0625 µg/mL
same,MIC,[58],> 512 µg/mL
same,MIC,[59],12.5 µg/mL
same,MIC,[60],32 µg/mL
same,MIC,[61],0.78 µg/mL
same,MIC,[62],> 512 µg/mL
same,MIC,[63],> 512 µg/mL
same,MIC,[64],2 µg/mL
same,MIC,[65],6.25 µg/mL

# Reference: ChEMBL document CHEMBL4130462, “Natural isoflavone biochanin A as a template for the design of new and potent 3-phenylquinolone efflux inhibitors against Mycobacterium avium” (Eur J Med Chem, 2017)
